Measurements reported in ChEMBL document CHEMBL4813932, “Terpenoid Constituents of Perovskia artemisioides Aerial Parts with Inhibitory Effects on Bacterial Biofilm Growth” (2021).

Assays:
Experiment in all cases: microbe, parasite or virus in culture
Type in all cases: functional
Escherichia coli [1] = details: DSM 8579, time 48 hrs
Description: Antibiofilm activity against Escherichia coli DSM 8579 assessed as inhibition of bacterial metabolism within the biofilm at 40 ug/ml measured after 48 hrs by MTT assay relative to control

Staphylococcus aureus [2] = details: ATCC 25923, time 48 hrs
Description: Antibiofilm activity against Staphylococcus aureus ATCC 25923 assessed as inhibition of biofilm formation at 4 ug/ml measured after 48 hrs by crystal violet staining based assay relative to control

Listeria monocytogenes [3] = details: ATCC 7644, time 48 hrs
Description: Antibiofilm activity against Listeria monocytogenes ATCC 7644 assessed as inhibition of biofilm formation at 4 ug/ml measured after 48 hrs by crystal violet staining based assay relative to control

Acinetobacter baumannii [4] = details: ATCC 19606 = CIP 70.34 = JCM 6841, time 48 hrs
Description: Antibiofilm activity against Acinetobacter baumannii ATCC 19606 assessed as inhibition of bacterial metabolism within the biofilm at 4 ug/ml measured after 48 hrs by MTT assay relative to control

Escherichia coli [5] = details: DSM 8579, time 48 hrs; remark: listed apart in the source
Description: Antibiofilm activity against Escherichia coli DSM 8579 assessed as inhibition of biofilm formation at 80 ug/ml measured after 48 hrs by crystal violet staining based assay relative to control

Listeria monocytogenes [6] = details: ATCC 7644, time 48 hrs; remark: listed apart in the source
Description: Antibiofilm activity against Listeria monocytogenes ATCC 7644 assessed as inhibition of biofilm formation at 8 ug/ml measured after 48 hrs by crystal violet staining based assay relative to control

Escherichia coli [7] = details: DSM 8579, time 48 hrs; remark: listed apart in the source
Description: Antibiofilm activity against Escherichia coli DSM 8579 assessed as inhibition of biofilm formation at 40 ug/ml measured after 48 hrs by crystal violet staining based assay relative to control

[8] = test system: Pectobacterium carotovorum; details: ATCC 15713, time 48 hrs
Description: Antibiofilm activity against Pectobacterium carotovorum ATCC 15713 assessed as inhibition of bacterial metabolism within the biofilm at 8 ug/ml measured after 48 hrs by MTT assay relative to control

Pseudomonas aeruginosa [9] = details: ATCC 50071, time 48 hrs
Description: Antibiofilm activity against Pseudomonas aeruginosa ATCC 50071 assessed as inhibition of biofilm formation at 8 ug/ml measured after 48 hrs by crystal violet staining based assay relative to control

Pseudomonas aeruginosa [10] = details: ATCC 50071, time 48 hrs; remark: listed apart in the source
Description: Antibiofilm activity against Pseudomonas aeruginosa ATCC 50071 assessed as inhibition of bacterial metabolism within the biofilm at 4 ug/ml measured after 48 hrs by MTT assay relative to control

Escherichia coli [11] = details: DSM 8579, time 48 hrs; remark: listed apart in the source
Description: Antibiofilm activity against Escherichia coli DSM 8579 assessed as inhibition of bacterial metabolism within the biofilm at 80 ug/ml measured after 48 hrs by MTT assay relative to control

Acinetobacter baumannii [12] = details: ATCC 19606 = CIP 70.34 = JCM 6841, time 48 hrs; remark: listed apart in the source
Description: Antibiofilm activity against Acinetobacter baumannii ATCC 19606 assessed as inhibition of biofilm formation at 8 ug/ml measured after 48 hrs by crystal violet staining based assay relative to control

Staphylococcus aureus [13] = details: ATCC 25923, time 48 hrs; remark: listed apart in the source
Description: Antibiofilm activity against Staphylococcus aureus ATCC 25923 assessed as inhibition of bacterial metabolism within the biofilm at 4 ug/ml measured after 48 hrs by MTT assay relative to control

Acinetobacter baumannii [14] = details: ATCC 19606 = CIP 70.34 = JCM 6841, time 48 hrs; remark: listed apart in the source
Description: Antibiofilm activity against Acinetobacter baumannii ATCC 19606 assessed as inhibition of biofilm formation at 4 ug/ml measured after 48 hrs by crystal violet staining based assay relative to control

Listeria monocytogenes [15] = details: ATCC 7644, time 48 hrs; remark: listed apart in the source
Description: Antibiofilm activity against Listeria monocytogenes ATCC 7644 assessed as inhibition of bacterial metabolism within the biofilm at 4 ug/ml measured after 48 hrs by MTT assay relative to control

Pseudomonas aeruginosa [16] = details: ATCC 50071, time 48 hrs; remark: listed apart in the source
Description: Antibiofilm activity against Pseudomonas aeruginosa ATCC 50071 assessed as inhibition of biofilm formation at 4 ug/ml measured after 48 hrs by crystal violet staining based assay relative to control

Staphylococcus aureus [17] = details: ATCC 25923, time 48 hrs; remark: listed apart in the source
Description: Antibiofilm activity against Staphylococcus aureus ATCC 25923 assessed as inhibition of bacterial metabolism within the biofilm at 8 ug/ml measured after 48 hrs by MTT assay relative to control

[18] = test system: Pectobacterium carotovorum; details: ATCC 15713, time 48 hrs; remark: listed apart in the source
Description: Antibiofilm activity against Pectobacterium carotovorum ATCC 15713 assessed as inhibition of biofilm formation at 4 ug/ml measured after 48 hrs by crystal violet staining based assay relative to control

Staphylococcus aureus [19] = details: ATCC 25923, time 48 hrs; remark: listed apart in the source
Description: Antibiofilm activity against Staphylococcus aureus ATCC 25923 assessed as inhibition of biofilm formation at 8 ug/ml measured after 48 hrs by crystal violet staining based assay relative to control

[20] = test system: Pectobacterium carotovorum; details: ATCC 15713, time 48 hrs; remark: listed apart in the source
Description: Antibiofilm activity against Pectobacterium carotovorum ATCC 15713 assessed as inhibition of biofilm formation at 8 ug/ml measured after 48 hrs by crystal violet staining based assay relative to control

Acinetobacter baumannii [21] = details: ATCC 19606 = CIP 70.34 = JCM 6841, time 48 hrs; remark: listed apart in the source
Description: Antibiofilm activity against Acinetobacter baumannii ATCC 19606 assessed as inhibition of bacterial metabolism within the biofilm at 8 ug/ml measured after 48 hrs by MTT assay relative to control

Listeria monocytogenes [22] = details: ATCC 7644, time 48 hrs; remark: listed apart in the source
Description: Antibiofilm activity against Listeria monocytogenes ATCC 7644 assessed as inhibition of bacterial metabolism within the biofilm at 8 ug/ml measured after 48 hrs by MTT assay relative to control

Pseudomonas aeruginosa [23] = details: ATCC 50071, time 48 hrs; remark: listed apart in the source
Description: Antibiofilm activity against Pseudomonas aeruginosa ATCC 50071 assessed as inhibition of bacterial metabolism within the biofilm at 8 ug/ml measured after 48 hrs by MTT assay relative to control

[24] = test system: Pectobacterium carotovorum; details: ATCC 15713, time 48 hrs; remark: listed apart in the source
Description: Antibiofilm activity against Pectobacterium carotovorum ATCC 15713 assessed as inhibition of bacterial metabolism within the biofilm at 4 ug/ml measured after 48 hrs by MTT assay relative to control

| SMILES | inhibition at 40 µg/mL (Escherichia coli [1]) [%] | inhibition at 4 µg/mL (Staphylococcus aureus [2]) [%] | inhibition at 4 µg/mL (Listeria monocytogenes [3]) [%] | inhibition at 4 µg/mL (Acinetobacter baumannii [4]) [%] | inhibition at 80 µg/mL (Escherichia coli [5]) [%] | inhibition at 8 µg/mL (Listeria monocytogenes [6]) [%] | inhibition at 40 µg/mL (Escherichia coli [7]) [%] | inhibition at 8 µg/mL [8] [%] | inhibition at 8 µg/mL (Pseudomonas aeruginosa [9]) [%] | inhibition at 4 µg/mL (Pseudomonas aeruginosa [10]) [%] | inhibition at 80 µg/mL (Escherichia coli [11]) [%] | inhibition at 8 µg/mL (Acinetobacter baumannii [12]) [%] | inhibition at 4 µg/mL (Staphylococcus aureus [13]) [%] | inhibition at 4 µg/mL (Acinetobacter baumannii [14]) [%] | inhibition at 4 µg/mL (Listeria monocytogenes [15]) [%] | inhibition at 4 µg/mL (Pseudomonas aeruginosa [16]) [%] | inhibition at 8 µg/mL (Staphylococcus aureus [17]) [%] | inhibition at 4 µg/mL [18] [%] | inhibition at 8 µg/mL (Staphylococcus aureus [19]) [%] | inhibition at 8 µg/mL [20] [%] | further results |
| --- | --- | --- | --- | --- | --- | --- | --- | --- | --- | --- | --- | --- | --- | --- | --- | --- | --- | --- | --- | --- | --- |
| CC(C)c1cc2c(c(O)c1O)[C@@]13CCCC(C)(C)[C@@H]1[C@H](OC3=O)[C@H]2O [ROSMANOL] | 0 | 45.1 | 47.3 | 6.9 | 0 | 68.7 | 0 | 46.6 | 73.1 | 3.7 | 0 | 55.5 | 63.8 | 44.2 | 24.9 | 68.4 | 70.6 | 0 | 79.9 | 26.2 | inhibition at 8 µg/mL (Acinetobacter baumannii [21]): 20.3%; inhibition at 8 µg/mL (Listeria monocytogenes [22]): 39.8%; inhibition at 8 µg/mL (Pseudomonas aeruginosa [23]): 9.5%; inhibition at 4 µg/mL [24]: 45.6% |
| CO[C@@H]1c2cc(C(C)C)c(O)c(O)c2[C@@]23CCCC(C)(C)[C@@H]2[C@@H]1OC3=O | 0 | 34.4 | 0 | 49.2 | 0 | 0 | 0 | 5.7 | 76.5 | 0 | 6.1 | 21 | 45.3 | 12.7 | 23.6 | 55.8 | 34.6 | 35.5 | 91.8 | 67.7 | inhibition at 8 µg/mL (Acinetobacter baumannii [21]): 38.8%; inhibition at 8 µg/mL (Listeria monocytogenes [22]): 29.7%; inhibition at 8 µg/mL (Pseudomonas aeruginosa [23]): 1.5%; inhibition at 4 µg/mL [24]: 4.4% |
| CC(C)c1cc2c(c(O)c1O)C[C@@]1(O)[C@@H](O)CCC(C)(C)[C@@H]1CC2 | 0 | 39.3 | 0 | 0 | 0 | 0 | 0 | 1.5 | 65.7 | 0 | 0 | 51.7 | 75.8 | 48.6 | 9.6 | 33.4 | 78.2 | 0 | 79.7 | 0 | inhibition at 8 µg/mL (Acinetobacter baumannii [21]): 96.7%; inhibition at 8 µg/mL (Listeria monocytogenes [22]): 13.1%; inhibition at 8 µg/mL (Pseudomonas aeruginosa [23]): 0%; inhibition at 4 µg/mL [24]: 0% |
| CCCCCC [HEXANE] | 74.2 | 71.8 | 92.4 | 25.2 | 95.8 | 98.3 | 87.6 | 49.4 | 97.9 | 95.5 | 78 | 48.5 | 98.6 | 35.7 | 49.1 | 94.8 | 99.2 | 94.8 | 93.7 | 97.8 | inhibition at 8 µg/mL (Acinetobacter baumannii [21]): 34.7%; inhibition at 8 µg/mL (Listeria monocytogenes [22]): 77.3%; inhibition at 8 µg/mL (Pseudomonas aeruginosa [23]): 97%; inhibition at 4 µg/mL [24]: 45.5% |
| CC(C)c1cc2c(c(O)c1O)[C@@]1(C(=O)O)CCCC(C)(C)[C@@H]1CC2 [CARNOSIC ACID] | 2.7 | 64.1 | 0 | 36.3 | 78.5 | 0 | 60 | 47.3 | 83 | 27.7 | 10.7 | 91.2 | 33.5 | 18.9 | 33.3 | 51.7 | 35.5 | 43.6 | 83.7 | 25.8 | inhibition at 8 µg/mL (Acinetobacter baumannii [21]): 57%; inhibition at 8 µg/mL (Listeria monocytogenes [22]): 55.6%; inhibition at 8 µg/mL (Pseudomonas aeruginosa [23]): 42.7%; inhibition at 4 µg/mL [24]: 41.3% |
